The MIC is the smallest concentration in the dilution series that meets the test's criterion for growth inhibition. In general, IC50 refers to the concentration that inhibits the measured activity by half.

Data on seven molecules can be found in patent US11685723B2, “Antibacterial agents: O-alkyl-deuterated pyronins” (Rutgers, the State University of New Jersey, priority 2018, dated 2023).

≈ marks a conversion by molar mass, not a printed value. Like-named read-outs stand apart in the source and are kept apart here. Some results are limits rather than exact numbers.

Data set [1] in a line: In vivo pharmacokinetics in mice (intravenous administration). The following applies: CD-1 mice, 2.5 mg/kg. As to the method: Test compounds (2.5 mg/kg; 0.1 ml of 0.625 mg/ml solution in 5% dimethylacetamide and 4% Cremophor EL in 100 mM sodium phosphate, pH 7.4) were administered to mice (CD-1; […]; n=3) by intravenous injection into a tail vein at t=0 h. Blood samples were collected by tail-vein bleed (CB 300 K2E tubes; Sarstedt) at t=0.02, 0.05, 1, 3, 5, and 8 h, and plasma concentrations of test compounds were determined by LC-MS/MS.

A short description of data set [2]: Metabolic stability, human liver microsomes. Type of data set: in vitro ADME. Conditions: human liver microsomes (male) 1 mg/ml, 1 mM NADPH, pH 7.4, 37° C. As to the method: (§1) Test compounds were incubated with mouse liver microsomes (CD-1; male and female pooled; 1 mg/ml) or human liver microsomes (male; 1 mg/ml) in 50 mM potassium phosphate, pH 7.4, and 1 mM NADPH at 37° C. Aliquots were removed at 0, 15, 30, 60, 90 and 120 min, and amounts of test compounds remaining were determined by LC-MS/MS. Half lives (t0.5) were calculated as t0.5=−0.693/k, where k is the slope of the linear regression of the natural logarithms of percentages of test compounds remaining vs. time.
Background: Liver microsomes are a subcellular fraction often used to study metabolism.

Data set [3] can be described thus: Metabolic stability, mouse liver microsomes. Conditions: CD-1 mouse liver microsomes 1 mg/ml, 1 mM NADPH, pH 7.4, 37° C. The format is in vitro ADME. The method, then:
as §1

In data set [4] the test system is Mycobacterium tuberculosis H37Rv. The data set is described as follows: Inhibition of growth of Mycobacterium tuberculosis (microplate Alamar Blue assay). The format is cell-based. The following applies: read-out: in vitro antibacterial activity M. tuberculosis H37Rv MIC.
Data set [5] deals with Staphylococcus aureus ATCC 12600. Put plainly: Inhibition of growth of Staphylococcus aureus (spiral gradient endpoint assay). Type of data set: cell-based. The following applies: read-out: in vitro antibacterial activity S. aureus ATCC 12600 MIC. The text has this:
Minimum inhibitory concentrations (MICs) for Staphylococcus aureus ATCC 12600 were quantified using spiral gradient endpoint assays, essentially as described [Wallace, A. and Corkill, J. (1989) Application of the spiral plating method to study antimicrobial action. J. Microbiol. Meths. 10, 303-310; Paton, J., Holt, A., and Bywater, M. (1990) Measurement of MICs of antibacterial agents by spiral gradient endpoint compared with conventional dilution methods. Int. J. Exp. Clin. Chemother. 3, 31-38; Schalkowsky S. (1994) Measures of susceptibility from a spiral gradient of drug concentrations. Adv. Exp. Med. Biol. 349, 107-120]. Assays employed exponential-gradient plates containing 150 mm×4 mm Mueller-Hinton II cation-adjusted agar and 0.4-100 μg/ml of test compound. Plates were prepared using an Autoplate 4000 spiral plater (Spiral Biotech, Inc.). Saturated overnight cultures were swabbed radially onto plates, and plates were incubated for 16 h at 37° C. For each culture, the streak length was measured using a clear plastic template (Spiral Biotech, Inc.), the test-compound concentration at the streak endpoint was calculated using the program SGE (Spiral Biotech, Inc.), and the MIC was defined as the calculated test-compound concentration at the streak endpoint.

In data set [6] the target is E. coli RNA polymerase σ70 holoenzyme (Escherichia coli, UniProt P0A8T7+P0A8V2). The data set is described as follows: Fluorescence-detected inhibition of bacterial RNA polymerase. The format is biochemical. As to the method:
Fluorescence-detected RNA polymerase assays with E. coli RNA polymerase were performed by a modification of the procedure of Kuhlman et al., 2004 [Kuhlman, P., Duff, H. & Galant, A. (2004) A fluorescence-based assay for multisubunit DNA-dependent RNA polymerases. Anal. Biochem. 324, 183-190]. Reaction mixtures contained (20 μl): 0-100 nM test compound, 75 nM E. coli RNA polymerase σ^70holoenzyme, 20 nM 384 bp DNA fragment containing the bacteriophage T4 N25 promoter, 100 μM ATP, 100 μM GTP, 100 μM UTP, 100 μM CTP, 50 mM Tris-HCl, pH 8.0, 100 mM KCl, 10 mM MgCl2, 1 mM DTT, 10 μg/ml bovine serum albumin, and 5.5% glycerol. Reaction components other than DNA and NTPs were pre-incubated for 10 min at 37° C. Reactions were carried out by addition of DNA and incubation for 5 min at 37° C., followed by addition of NTPs and incubation for 60 min at 37° C. DNA was removed by addition of 1 μl 5 mM CaCl2 and 2 U DNaseI (Ambion, Inc.), followed by incubation for 90 min at 37° C. RNA was quantified by addition of 100 μl RiboGreen RNA Quantitation Reagent (Invitrogen, Inc.; 1:500 dilution in Tris-HCl, pH 8.0, 1 mM EDTA), followed by incubation for 10 min at 25° C., followed by measurement of fluorescence intensity [excitation wavelength=485 nm and emission wavelength=535 nm; QuantaMaster QM1 spectrofluorometer (PTI, Inc.)]. IC50 is defined as the concentration of inhibitor resulting in 50% inhibition of RNA polymerase activity.

Setting [7] is: ATCC12600, spiral gradient endpoint assay, 16 h at 37° C.
Setting [8] is: 75 nM E. coli RNAP holoenzyme, RiboGreen fluorescence, read-out: in vitro RNAP-inhibitory activity E. coli RNAP IC50.

E. coli RNA polymerase σ70 holoenzyme, sequence (P0A8V2 whole entry, the tested form may be a part): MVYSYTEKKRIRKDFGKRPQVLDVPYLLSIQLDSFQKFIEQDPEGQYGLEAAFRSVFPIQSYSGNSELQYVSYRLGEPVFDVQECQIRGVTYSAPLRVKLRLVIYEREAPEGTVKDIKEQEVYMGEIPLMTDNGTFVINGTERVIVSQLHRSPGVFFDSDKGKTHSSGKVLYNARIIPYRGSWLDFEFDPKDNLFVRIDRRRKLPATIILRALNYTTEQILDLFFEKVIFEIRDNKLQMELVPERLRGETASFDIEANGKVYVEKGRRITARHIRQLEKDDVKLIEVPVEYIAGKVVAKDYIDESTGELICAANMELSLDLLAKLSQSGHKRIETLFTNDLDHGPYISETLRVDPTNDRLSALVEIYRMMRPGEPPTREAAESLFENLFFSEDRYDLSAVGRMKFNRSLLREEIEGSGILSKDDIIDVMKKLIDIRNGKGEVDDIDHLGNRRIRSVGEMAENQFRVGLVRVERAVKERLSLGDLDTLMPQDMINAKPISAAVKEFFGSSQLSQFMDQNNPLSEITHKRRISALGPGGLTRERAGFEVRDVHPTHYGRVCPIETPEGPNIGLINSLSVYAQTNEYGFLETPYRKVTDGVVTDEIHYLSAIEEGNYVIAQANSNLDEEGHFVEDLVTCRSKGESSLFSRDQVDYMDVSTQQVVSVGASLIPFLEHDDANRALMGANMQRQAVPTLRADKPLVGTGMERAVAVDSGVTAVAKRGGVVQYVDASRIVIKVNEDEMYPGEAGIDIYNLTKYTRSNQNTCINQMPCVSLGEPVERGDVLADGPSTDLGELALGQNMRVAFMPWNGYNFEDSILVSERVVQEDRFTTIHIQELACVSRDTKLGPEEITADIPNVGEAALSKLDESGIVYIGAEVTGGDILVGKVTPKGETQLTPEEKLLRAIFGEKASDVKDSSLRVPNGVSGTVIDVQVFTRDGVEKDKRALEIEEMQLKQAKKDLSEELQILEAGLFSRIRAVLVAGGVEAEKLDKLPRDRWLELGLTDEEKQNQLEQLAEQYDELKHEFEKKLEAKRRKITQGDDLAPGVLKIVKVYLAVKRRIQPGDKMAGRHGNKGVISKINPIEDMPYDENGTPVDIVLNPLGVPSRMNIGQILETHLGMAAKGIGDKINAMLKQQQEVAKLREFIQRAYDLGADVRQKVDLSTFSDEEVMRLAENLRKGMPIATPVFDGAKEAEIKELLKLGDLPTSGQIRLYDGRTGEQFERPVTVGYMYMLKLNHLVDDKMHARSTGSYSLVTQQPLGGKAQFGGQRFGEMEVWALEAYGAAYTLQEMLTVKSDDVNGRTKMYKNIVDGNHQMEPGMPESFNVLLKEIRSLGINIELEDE
E. coli RNA polymerase σ70 holoenzyme, sequence (P0A8T7 whole entry, the tested form may be a part): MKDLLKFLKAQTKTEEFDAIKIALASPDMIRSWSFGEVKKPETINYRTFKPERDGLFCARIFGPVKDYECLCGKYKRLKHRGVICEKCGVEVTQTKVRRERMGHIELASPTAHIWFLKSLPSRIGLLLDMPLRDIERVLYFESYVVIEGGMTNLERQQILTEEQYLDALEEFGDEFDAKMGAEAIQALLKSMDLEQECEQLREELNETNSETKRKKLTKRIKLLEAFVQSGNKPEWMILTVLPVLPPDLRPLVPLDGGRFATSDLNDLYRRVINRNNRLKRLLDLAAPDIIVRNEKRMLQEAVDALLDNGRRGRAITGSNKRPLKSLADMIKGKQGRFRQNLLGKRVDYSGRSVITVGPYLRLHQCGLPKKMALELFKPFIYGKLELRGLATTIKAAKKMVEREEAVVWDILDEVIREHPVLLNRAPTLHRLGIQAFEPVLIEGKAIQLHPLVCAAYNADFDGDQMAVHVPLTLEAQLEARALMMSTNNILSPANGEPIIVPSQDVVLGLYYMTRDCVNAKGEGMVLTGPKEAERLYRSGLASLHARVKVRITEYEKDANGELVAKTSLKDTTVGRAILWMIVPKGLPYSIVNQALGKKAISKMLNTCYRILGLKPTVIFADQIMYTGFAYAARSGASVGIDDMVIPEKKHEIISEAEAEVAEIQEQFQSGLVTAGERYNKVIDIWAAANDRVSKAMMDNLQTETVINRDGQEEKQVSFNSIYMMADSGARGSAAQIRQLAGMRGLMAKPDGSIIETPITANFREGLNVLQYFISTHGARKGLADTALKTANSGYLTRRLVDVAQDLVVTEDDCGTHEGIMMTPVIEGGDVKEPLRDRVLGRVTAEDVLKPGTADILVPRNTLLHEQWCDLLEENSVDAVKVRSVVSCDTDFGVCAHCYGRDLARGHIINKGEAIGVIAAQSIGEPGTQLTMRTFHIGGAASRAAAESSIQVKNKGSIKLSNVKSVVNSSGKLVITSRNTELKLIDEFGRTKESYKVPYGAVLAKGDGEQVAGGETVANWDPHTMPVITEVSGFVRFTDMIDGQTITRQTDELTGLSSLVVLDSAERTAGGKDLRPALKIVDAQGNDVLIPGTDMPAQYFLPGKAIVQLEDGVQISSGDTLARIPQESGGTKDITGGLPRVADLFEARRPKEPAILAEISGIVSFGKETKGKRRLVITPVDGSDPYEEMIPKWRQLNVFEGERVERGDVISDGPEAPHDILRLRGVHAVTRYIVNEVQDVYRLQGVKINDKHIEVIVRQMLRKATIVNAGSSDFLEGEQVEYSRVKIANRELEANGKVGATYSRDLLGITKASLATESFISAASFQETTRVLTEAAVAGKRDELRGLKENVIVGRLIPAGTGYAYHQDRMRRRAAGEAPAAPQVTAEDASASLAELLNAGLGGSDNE
E. coli RNA polymerase σ70 holoenzyme, sequence (P0A7Z4 whole entry partner, the tested form may be a part): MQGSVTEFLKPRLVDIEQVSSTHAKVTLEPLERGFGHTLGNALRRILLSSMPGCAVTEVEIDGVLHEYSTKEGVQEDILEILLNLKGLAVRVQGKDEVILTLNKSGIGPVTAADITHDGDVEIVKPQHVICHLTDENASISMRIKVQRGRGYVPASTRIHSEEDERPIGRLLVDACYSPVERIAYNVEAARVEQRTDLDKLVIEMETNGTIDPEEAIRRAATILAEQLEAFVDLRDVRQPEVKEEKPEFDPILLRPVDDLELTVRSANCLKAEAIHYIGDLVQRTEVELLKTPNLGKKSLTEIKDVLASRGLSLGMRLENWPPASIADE
E. coli RNA polymerase σ70 holoenzyme, sequence (P0A800 2-91 partner limits assumed): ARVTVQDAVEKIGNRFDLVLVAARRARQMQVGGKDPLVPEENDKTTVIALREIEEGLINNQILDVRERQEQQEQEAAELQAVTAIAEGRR
E. coli RNA polymerase σ70 holoenzyme, sequence (P00579 whole entry partner, the tested form may be a part): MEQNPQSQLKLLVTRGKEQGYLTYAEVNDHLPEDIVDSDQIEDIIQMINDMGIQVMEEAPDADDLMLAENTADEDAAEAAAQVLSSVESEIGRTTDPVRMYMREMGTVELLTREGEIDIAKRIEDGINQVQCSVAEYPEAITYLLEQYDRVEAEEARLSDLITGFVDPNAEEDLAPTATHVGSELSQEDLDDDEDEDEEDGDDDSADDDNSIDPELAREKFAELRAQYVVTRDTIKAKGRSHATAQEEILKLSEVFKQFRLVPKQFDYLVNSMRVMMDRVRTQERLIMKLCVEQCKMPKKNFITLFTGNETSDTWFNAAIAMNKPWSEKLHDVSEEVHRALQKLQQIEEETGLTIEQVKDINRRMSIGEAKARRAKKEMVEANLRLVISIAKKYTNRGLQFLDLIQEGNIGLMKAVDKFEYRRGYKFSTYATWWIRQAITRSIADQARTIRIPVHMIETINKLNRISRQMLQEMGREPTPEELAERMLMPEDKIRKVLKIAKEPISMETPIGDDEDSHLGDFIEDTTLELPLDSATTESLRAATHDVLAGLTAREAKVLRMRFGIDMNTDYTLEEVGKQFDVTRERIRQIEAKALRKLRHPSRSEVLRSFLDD

With `[2H]C([2H])([2H])OC(=O)N/C=C/CCCc1cc(O)c(C(=O)/C(C)=C/c2sc(Oc3ccc(F)cc3)nc2C)c(=O)o1` [Example 7], in data set [1], the “plasma t0.5” value is reported as 2.6 h. Also, in data set [2], the “human liver microsome t0.5” value is 8.3 min. Further, the “mouse liver microsome t0.5” value in data set [3] was >120 min. The MIC in data set [4] came out at 0.78 µg/mL (≈ 1.47 µM); in data set [5] (setting [7]), 0.19 µg/mL (≈ 0.357 µM). In data set [6] (setting [8]), the IC50 was 2 nM.
Consider `COC(=O)N/C=C/CCC(C)c1cc(O)c(C(=O)/C(C)=C/c2cnc(Oc3ccc(F)cc3)s2)c(=O)o1` (stereo not drawn) [Example 2], for which, in data set [1], the “plasma t0.5” value was 2.8 h. For the same molecule, the “human liver microsome t0.5” value in data set [2] came out at 14 min. Further, in data set [3], the “mouse liver microsome t0.5” value was 60 min. The values for the MIC in data set [4] and in data set [5] (setting [7]) were 3.12 µg/mL (≈ 5.91 µM) and 0.5 µg/mL (≈ 0.946 µM), respectively. For the same molecule, the IC50 in data set [6] (setting [8]) is 9.6 nM.
On to `COC(=O)N/C=C/CCC(C)c1cc(O)c(C(=O)/C(C)=C/c2sc(Oc3ccc(F)cc3)nc2C)c(=O)o1` (stereo not drawn) [Example 1], for which the “plasma t0.5” value in data set [1] is 2.7 h. In data set [2], the “human liver microsome t0.5” value stood at 8.3 min. For the same molecule, the “mouse liver microsome t0.5” value in data set [3] worked out at 21 min. In addition, the figures for the MIC in data set [4] and in data set [5] (setting [7]) were 3.12 µg/mL (≈ 5.76 µM) and 0.35 µg/mL (≈ 0.645 µM), respectively. The IC50 in data set [6] (setting [8]) came out at 5.6 nM.
Take `[2H]C([2H])([2H])OC(=O)N/C=C/CCC(C)c1cc(O)c(C(=O)/C(C)=C/c2cnc(Oc3ccc(F)cc3)s2)c(=O)o1` (stereo not drawn) [Example 5]: in data set [1], the “plasma t0.5” value turned out to be 3.0 h. Also, the “human liver microsome t0.5” value in data set [2] worked out at 21 min. Also, the “mouse liver microsome t0.5” value in data set [3] is given as >120 min. The MIC in data set [4] came out at 1.56 µg/mL (≈ 2.93 µM); in data set [5] (setting [7]) it was 0.3 µg/mL (≈ 0.564 µM). Besides, in data set [6] (setting [8]), the IC50 is 5.3 nM.
For `[2H]C([2H])([2H])OC(=O)N/C=C/CCCc1cc([O-])c(C(=O)/C(C)=C/c2cnc(Oc3ccc(F)cc3)s2)c(=O)o1.[Na+]` [Example 9], in data set [1], the “plasma t0.5” value amounted to 3.9 h. Moreover, the “human liver microsome t0.5” value in data set [2] is 29 min. Further, the “mouse liver microsome t0.5” value in data set [3] is >120 min. Moreover, the MIC in data set [4] worked out at 0.39 µg/mL; in data set [5] (ATCC12600, 16 h) it was 0.41 µg/mL. In addition, the IC50 in data set [6] came out at 3 nM.
Take `[2H]C([2H])([2H])OC(=O)N/C=C/CCCc1cc(O)c(C(=O)/C(C)=C/c2cnc(Oc3ccc(F)c(Cl)c3)s2)c(=O)o1` [Example 14]: in data set [1], the “plasma t0.5” value was 1.8 h. Further, the “human liver microsome t0.5” value in data set [2] amounted to 21 min. In addition, the “mouse liver microsome t0.5” value in data set [3] worked out at 65 min. Also, the MIC turned out to be 0.78 µg/mL (≈ 1.41 µM) in data set [4] and 0.19 µg/mL (≈ 0.344 µM) in data set [5] (setting [7]). The IC50 in data set [6] (setting [8]) stood at 2.9 nM.
Turning to `COC(=O)N/C=C/CCCc1cc(O)c(C(=O)/C(C)=C/c2cnc(Oc3ccc(F)cc3)s2)c(=O)o1` [Example 6], the “plasma t0.5” value in data set [1] stood at 2.4 h. For the same molecule, the “human liver microsome t0.5” value in data set [2] was 8.6 min. Besides, the “mouse liver microsome t0.5” value in data set [3] was >120 min. Moreover, the values for the MIC in data set [4] and in data set [5] (setting [7]) were 0.78 µg/mL (≈ 1.52 µM) and 0.73 µg/mL (≈ 1.42 µM), respectively. Moreover, the IC50 in data set [6] (setting [8]) was 8.4 nM.
